These results are taken from patent publication US8822448B2, “Pyrazoloquinoline compound” (Astellas Pharma Inc., priority 2010, dated 2014).

In series [1] the test system is urethra relaxation response. The series can be described thus: Simultaneous measurement model for rat bladder contraction/urethra relaxation responses. The class given is in vivo. Conditions: female SD rat, increase relative to the solvent administration group, read-out: Ratio with increased urethra relaxation time during voiding (vs vehicle) (%). The procedure: Simultaneous measurement of the bladder contraction and urethra relaxation responses using a rat was carried out with a partial modification of a method in Wibberley et al. (Wibberley, A., et al., Br. J. Pharmacol., 136: pp. 399-414 (2002)). That is, a female Sprague-Dawley (SD) rat (Charles River Laboratories Japan, Inc.) was anesthetized with urethane, and the bladder was exposed by a midline incision in the lower abdomen. A double lumen cannula (a cannula having a dual structure by PE190 and PE50) from the bladder apex was inserted into the bladder, and the bladder apex and the cannula were fixed by sutures at a point where the tip reached the proximal urethra. While infusing physiological saline into the urethra through the outer cannula, the urethral inner pressure was measured by a pressure transducer through the inner cannula with a saline solution infused into the urethra through the outer cannula. On the other hand, a single cannula (PESO) was inserted into the bladder from the bladder apex and placed therein. The inner pressure of the bladder was measured through this cannula. After a postoperative stabilization period had passed, physiological saline was infused into the bladder through the cannula of the bladder apex to cause a bladder contraction reaction, and thus cause a urethra relaxation response accompanying the bladder contraction reflex. The test substance was administered intravenously or intraduodenally.

In series [2] the target is PDE9 (Homo sapiens (Human), UniProt O76083). The series can be described thus: PDE9-inhibiting activity (SPA enzyme assay). The class given is biochemical. Particulars: IC50 values; cGMP 1 μM substrate, 30° C.; read-out: PDE9 inhibition. Here is the method:
The PDE9-inhibiting activity was measured by the following method. That is, to a buffer solution containing tris(hydroxymethyl)aminomethane-hydrochloric acid (40 mM, pH 8.0), magnesium chloride (5 mM), and 2-mercaptoethanol (4 mM) were added cGMP (1 μM) and ^3H-cGMP (0.33 μCi/ml) to give a substrate buffer solution. A test substance solution and an enzyme solution which had been adjusted to an optimal concentration were added thereto to perform a reaction at 30° C. The enzyme reaction was stopped by the addition of Scintillation Proximity Assay (SPA) Beads (Perkin Elmer, USA) containing 5 mM 3-isobutyl-1-methylxanthine (IBMX). For the enzyme activity, the amount of 5′-GMP, which is a reaction degradation product bound to SPA beads, was measured with a TopCount microplate reader (Hewlett Packard, USA). The inhibitory rate was calculated by taking the radioactivity of the control containing no test substance as (A), taking the radioactivity of the blank containing no enzyme as (B), and taking the radioactivity of the test substance as (C), and using the following equation.

The structures appear in SMILES notation.

Sequence of PDE9 (O76083 whole entry): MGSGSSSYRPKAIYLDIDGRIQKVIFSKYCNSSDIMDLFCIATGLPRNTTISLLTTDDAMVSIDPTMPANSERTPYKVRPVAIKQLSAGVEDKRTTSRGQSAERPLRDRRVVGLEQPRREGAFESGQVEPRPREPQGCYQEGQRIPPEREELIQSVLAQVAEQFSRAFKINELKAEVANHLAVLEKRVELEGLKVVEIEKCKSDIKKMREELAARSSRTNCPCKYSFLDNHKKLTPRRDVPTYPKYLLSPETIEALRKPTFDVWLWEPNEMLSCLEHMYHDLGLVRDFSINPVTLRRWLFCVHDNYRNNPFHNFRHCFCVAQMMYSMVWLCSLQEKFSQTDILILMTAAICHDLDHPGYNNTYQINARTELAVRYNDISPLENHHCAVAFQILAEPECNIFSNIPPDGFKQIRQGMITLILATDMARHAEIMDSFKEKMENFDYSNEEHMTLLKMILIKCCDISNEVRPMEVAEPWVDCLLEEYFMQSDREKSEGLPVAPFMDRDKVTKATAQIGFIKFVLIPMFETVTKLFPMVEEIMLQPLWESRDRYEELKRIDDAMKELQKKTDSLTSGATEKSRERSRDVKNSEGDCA

Turning to `COCCCCN1CCN(C(=O)c2cc3c(cc2C)[nH]c(=O)c2cnn(C4CCC4)c23)CC1` [Example 79], the melting point was in the range of 161 to 163 °C. Besides, in series [1], the response vs control in vivo at 1 mg/kg turned out to be 139%. For the same compound, the IC50 in series [2] came to 23 nM.

Take `Cc1cc2[nH]c(=O)c3cnn(C4CCOCC4)c3c2cc1C(=O)N1CCC(OC[C@H](C)F)CC1` [Example 95]: the melting point lay in the range of 209 to 210 °C. In series [1], the response vs control in vivo at 1 mg/kg was 166%. Also, the IC50 in series [2] was 14 nM.

Consider `Cc1cc2[nH]c(=O)c3cnn(C4CCOCC4)c3c2cc1C(=O)N1CCC(OCC2CC2)CC1` [Example 41], for which the melting point lay in the range of 206 to 208 °C. In addition, the response vs control in vivo at 1 mg/kg in series [1] amounted to 159%. For the same compound, the IC50 in series [2] came to 5.7 nM.

`Cc1cc2[nH]c(=O)c3cnn(C4CCOCC4)c3c2cc1C(=O)NCC1(N2CCOCC2)CCCCC1.Cl` [Example 23] showed a melting point of 281 to 283 °C. Besides, in series [1], the response vs control in vivo at 1 mg/kg was 168%. Besides, the IC50 in series [2] was 0.4 nM.

Consider `CCCOC1CCN(C(=O)c2cc3c(cc2C)[nH]c(=O)c2cnn(C4CCOCC4)c23)CC1` [Example 53], for which the melting point lay in the range of 216 to 218 °C. The response vs control in vivo at 1 mg/kg in series [1] is 145%. In addition, in series [2], the IC50 is 3.9 nM.

`Cc1cc2[nH]c(=O)c3cnn(C4CCOCC4)c3c2cc1C(=O)N1CCN(CCC(F)(F)F)CC1.Cl` [Example 128] came in with a melting point of 174 to 176 °C. The response vs control in vivo at 1 mg/kg in series [1] was found to be 136%. For the same compound, in series [2], the IC50 came out at 5.2 nM.

With `Cc1cc2[nH]c(=O)c3cnn(C4CCOCC4)c3c2cc1C(=O)N1CCC(Oc2ccccn2)CC1` [Example 22], the melting point lay within 250 to 253 °C. The response vs control in vivo at 1 mg/kg in series [1] was 142%. Besides, in series [2], the IC50 came out at 2.2 nM.

In the case of `COCCCCN1CCN(C(=O)c2cc3c(cc2C)[nH]c(=O)c2cnn(C4CCOCC4)c23)CC1.Cl` [Example 84], the melting point was in the range of 240 to 242 °C. In series [1], the response vs control in vivo at 1 mg/kg is 154%. Further, in series [2], the IC50 came to 9.3 nM.

In the case of `CCOCCCCN1CCN(C(=O)c2cc3c(cc2C)[nH]c(=O)c2cnn(C4CCOCC4)c23)C[C@@H]1C` [Example 109], the response vs control in vivo at 1 mg/kg in series [1] is 158%. In addition, the IC50 in series [2] was determined as 5.8 nM.
